Residues, ends and D or L forms follow the SMILES beside them.
Tests used:
[1] = target: T1, BtDPP III (Bacteroides thetaiotaomicron, UniProt Q8A6N1); experiment: Inhibition of DPP III hydrolysis of Arg2-2NA by tynorphin; type: biochemical; details: substrate Arg2-2NA, from initial hydrolysis rates, eq. 1
T1 construct: made in house; host or cells: E. coli

[2] = target: T2, CaDPP III (Caldithrix abyssi, UniProt H1XW48); experiment: as above; type: biochemical; details: substrate Arg2-2NA, from initial hydrolysis rates, eq. 1
T2 construct: made in house; host or cells: E. coli
T2 sequence (H1XW48 19-558): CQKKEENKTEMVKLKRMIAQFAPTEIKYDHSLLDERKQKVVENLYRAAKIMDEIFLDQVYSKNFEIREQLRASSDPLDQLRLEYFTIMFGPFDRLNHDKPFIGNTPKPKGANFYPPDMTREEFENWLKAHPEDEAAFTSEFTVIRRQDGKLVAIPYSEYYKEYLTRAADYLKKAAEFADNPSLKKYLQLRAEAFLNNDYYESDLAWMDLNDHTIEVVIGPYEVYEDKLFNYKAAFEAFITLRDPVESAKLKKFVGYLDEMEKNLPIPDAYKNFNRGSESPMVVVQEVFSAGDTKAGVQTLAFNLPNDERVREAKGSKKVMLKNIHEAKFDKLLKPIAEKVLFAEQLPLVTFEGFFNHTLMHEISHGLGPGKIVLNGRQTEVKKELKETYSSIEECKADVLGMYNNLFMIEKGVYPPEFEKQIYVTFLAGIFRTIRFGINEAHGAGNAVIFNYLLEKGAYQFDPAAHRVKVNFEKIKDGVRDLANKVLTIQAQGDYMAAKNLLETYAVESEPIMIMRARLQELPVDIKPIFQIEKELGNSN
Description: The Km values for hydrolysis of fluorogenic substrate Arg2-2NA were determined at pH 7.4 (20 mM Tris–HCl buffer) and at 25 °C, from the initial reaction rates as previously described.[26]
Enzyme inhibition studies with tynorphin were performed using the Arg2-2NA as a substrate, according to Baršun et al.[36] The inhibition constant, Ki, was calculated according to the equation:1 Ki = i/(v0/vi − 1)·Km/(Km + s)where v0 and vi are the initial hydrolysis rates of Arg2-2NA (given in concentration s) catalyzed by DPP III in the absence and presence of inhibitor concentration (i), and Km is the Michaelis constant.

T1 sequence (Q8A6N1 entry or part of it, change not shown): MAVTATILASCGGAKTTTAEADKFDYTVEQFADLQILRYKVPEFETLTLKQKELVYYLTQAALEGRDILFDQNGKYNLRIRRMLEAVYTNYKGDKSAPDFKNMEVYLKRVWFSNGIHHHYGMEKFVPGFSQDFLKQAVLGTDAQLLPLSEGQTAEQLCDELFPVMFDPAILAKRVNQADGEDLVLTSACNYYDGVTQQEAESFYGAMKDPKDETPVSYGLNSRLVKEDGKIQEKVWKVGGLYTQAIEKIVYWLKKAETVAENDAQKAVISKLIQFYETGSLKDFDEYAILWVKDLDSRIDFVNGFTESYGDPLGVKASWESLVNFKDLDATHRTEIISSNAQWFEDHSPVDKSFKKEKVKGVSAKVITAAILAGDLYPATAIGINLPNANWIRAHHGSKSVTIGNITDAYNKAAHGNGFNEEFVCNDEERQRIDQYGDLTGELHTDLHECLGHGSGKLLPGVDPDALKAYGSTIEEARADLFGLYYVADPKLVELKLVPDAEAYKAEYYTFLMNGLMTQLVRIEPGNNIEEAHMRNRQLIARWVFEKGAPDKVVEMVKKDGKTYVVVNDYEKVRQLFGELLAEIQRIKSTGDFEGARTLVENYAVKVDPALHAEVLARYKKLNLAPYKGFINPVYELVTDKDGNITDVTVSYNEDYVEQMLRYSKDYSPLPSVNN

CC(C)[C@H](N)C(=O)N[C@H](C(=O)N[C@@H](Cc1ccc(O)cc1)C(=O)N1CCC[C@H]1C(=O)N[C@@H](Cc1c[nH]c2ccccc12)C(=O)O)C(C)C [tynorphin] (H-VVYPW-OH)
Ki [1]: 980 nM
Ki [2]: 16.8 µM
